Measurements reported in the supplement of paper PMC10331698.
± gives the standard deviation of the averaged measurements.

How the values were obtained:
Assay in all cases: level (log10 ratio to DMSO vehicle control); higher = higher biomarker level / cell amount than vehicle control
Details in all cases: in DMSO
[1] = compound: CC(C)(C)C(=O)CC(=O)C(F)(F)C(F)(F)C(F)(F)F [(Heptafluorobutanoyl)pivaloylmethane]
Protocol: (§1)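 BioMAP Diversity Plus panel of 12 human primary cell co-culture systems (3C, 4H, LPS, SAg, BT, BF4T, BE3C, CASM3C, HDF3CGF, KF3CT, MyoF, Mphg). Compounds were added 1 h before stimulation and left for 24 h (MyoF 48 h; BT 72 h for soluble read-outs or 6 d for IgG). Biomarkers were read by ELISA, cytotoxicity by SRB, PBMC viability and proliferation by Alamar Blue. Each well value was divided by the mean of 8 DMSO control wells on the same plate and log10 transformed; duplicate blinded samples were tested at 4 concentrations.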

[2] = compound: O=C(O)CCC(F)(F)C(F)(F)C(F)(F)C(F)(F)C(F)(F)F [2H,2H,3H,3H-Perfluorooctanoic acid]
Protocol: as §1

[3] = compound: CNS(=O)(=O)C(F)(F)C(F)(F)C(F)(F)C(F)(F)C(F)(F)C(F)(F)C(F)(F)C(F)(F)F [N-Methylperfluorooctanesulfonamide]
Protocol: as §1

1-(Perfluorohexyl)octane = compound: CCCCCCCCC(F)(F)C(F)(F)C(F)(F)C(F)(F)C(F)(F)C(F)(F)F [1-(Perfluorohexyl)octane]
Protocol: as §1

Hexafluoroglutaric acid = compound: O=C(O)C(F)(F)C(F)(F)C(F)(F)C(=O)O [Hexafluoroglutaric acid]
Protocol: as §1

Perfluorooctanamidine = compound: N=C(N)C(F)(F)C(F)(F)C(F)(F)C(F)(F)C(F)(F)C(F)(F)C(F)(F)F [Perfluorooctanamidine]
Protocol: as §1

Perfluorooctanamide = compound: NC(=O)C(F)(F)C(F)(F)C(F)(F)C(F)(F)C(F)(F)C(F)(F)C(F)(F)F [Perfluorooctanamide]
Protocol: as §1

Row | Test System | level (log10) ([1]; 6700 nM) | level (log10) ([1]; 20000 nM) | level (log10) ([1]; 60000 nM) | level (log10) ([2]; 6700 nM) | level (log10) ([2]; 20000 nM) | level (log10) ([2]; 60000 nM) | level (log10) ([3]; 6700 nM) | level (log10) ([3]; 20000 nM) | level (log10) ([3]; 60000 nM) | level (log10) (1-(Perfluorohexyl)octane; 6700 nM) | level (log10) (1-(Perfluorohexyl)octane; 20000 nM) | level (log10) (Hexafluoroglutaric acid; 6700 nM) | level (log10) (Hexafluoroglutaric acid; 20000 nM) | level (log10) (Hexafluoroglutaric acid; 60000 nM) | level (log10) (Perfluorooctanamidine; 6700 nM) | level (log10) (Perfluorooctanamidine; 20000 nM) | level (log10) (Perfluorooctanamidine; 60000 nM) | level (log10) (Perfluorooctanamide; 6700 nM) | level (log10) (Perfluorooctanamide; 20000 nM) | level (log10) (Perfluorooctanamide; 60000 nM)
1 | BF4T:Keratin 8/18 | -0.007 ± 0.061 | -0.024 ± 0.041 | 0.0145 ± 0.0035 | -0.0015 ± 0.015 | -0.0055 ± 0.0021 | 0.005 ± 0.024 | -0.02 ± 0.0042 | -0.0185 ± 0.013 | 0.0135 ± 0.023 | 0.006 ± 0.016 | 0.0055 ± 0.0078 | -0.006 ± 0.013 | -0.0145 ± 0.015 | 0.0005 ± 0.00071 | -0.012 ± 0.0057 | -0.0165 ± 0.016 | 0.039 | -0.023 ± 0.018 | 0.002 ± 0.021 | -0.0075 ± 0.023
2 | BF4T:MMP-1 | 0.0005 ± 0.0035 | -0.0145 ± 0.0092 | -0.011 ± 0.02 | -0.003 ± 0.0042 | 0.001 ± 0.023 | 0.005 ± 0.021 | 0.012 ± 0.02 | 0.0105 ± 0.015 | -0.0105 ± 0.044 | -0.0155 ± 0.035 | 0.0075 ± 0.052 | 0.0035 ± 0.013 | 0.0215 ± 0.012 | 0.018 ± 0.0099 | 0.015 ± 0.02 | 0.006 ± 0.024 | 0.092 | -0.0195 ± 0.0078 | 0.0055 ± 0.005 | -0.0385 ± 0.011
3 | BF4T:MMP-3 | -0.031 ± 0.02 | -0.0345 ± 0.029 | -0.0285 ± 0.057 | -0.0015 ± 0.019 | 0.0025 ± 0.0035 | 0.0235 ± 0.066 | 0.0015 ± 0.046 | 0.012 ± 0.052 | 0.044 ± 0.064 | 0.005 ± 0.0057 | -0.0135 ± 0.016 | -0.0045 ± 0.0092 | -0.0125 ± 0.035 | 0.0175 ± 0.0021 | 0.0035 ± 0.032 | 0.003 ± 0.055 | 0.148 | -0.007 ± 0.051 | 0.0125 ± 0.012 | 0.019 ± 0.017
4 | BF4T:MMP-9 | -0.009 ± 0.042 | 0.0205 ± 0.029 | 0.033 ± 0.0014 | -0.0095 ± 0.03 | -0.022 ± 0.027 | 0.015 ± 0.018 | -0.0095 ± 0.011 | 0.008 ± 0.0014 | -0.021 ± 0.045 | -0.014 ± 0.02 | 0.005 ± 0.025 | -0.003 ± 0.0014 | -0.0135 ± 0.012 | 0.007 ± 0.0028 | -0.006 ± 0.0057 | -0.0115 ± 0.013 | 0.053 | -0.0065 ± 0.011 | 0.0015 ± 0.039 | -0.031 ± 0.048
5 | BF4T:PAI-I | -0.0045 ± 0.0021 | 0.001 ± 0.0028 | 0.0085 ± 0.012 | -0.005 ± 0.014 | -0.0155 ± 0.016 | -0.024 ± 0.014 | 0.0005 ± 0.018 | 0.0015 ± 0.028 | 0.0285 ± 0.033 | 0.0075 ± 0.026 | 0.0005 ± 0.028 | -0.0085 ± 0.022 | -0.002 ± 0.021 | 0.0165 ± 0.011 | 0.007 ± 0.013 | -0.001 ± 0.03 | 0.03 | -0.009 ± 0.023 | -0.004 ± 0.017 | 0.0065 ± 0.005
6 | BF4T:SRB | -0.006 ± 0.0085 | 0.0075 ± 0.0021 | 0.0055 ± 0.023 | -0.0005 ± 0.0078 | -0.003 ± 0.013 | -0.005 ± 0.0028 | -0.016 ± 0.0071 | -0.021 ± 0.0042 | -0.0115 ± 0.013 | -0.0045 ± 0.0035 | -0.0035 ± 0.0035 | -0.005 ± 0.0028 | -0.0065 ± 0.0021 | -0.0015 ± 0.0078 | -0.009 ± 0.0071 | -0.0085 ± 0.0035 | -0.004 | -0.005 ± 0.0042 | 0.008 ± 0.011 | -0.006 ± 0.0042
7 | BF4T:tPA | -0.024 ± 0.027 | -0.033 ± 0.0057 | -0.0225 ± 0.026 | -0.014 ± 0.0014 | -0.023 ± 0.0085 | -0.0535 ± 0.042 | 0.0145 ± 0.011 | 0.0325 ± 0.03 | 0.0515 ± 0.019 | 0.0075 ± 0.013 | 0.026 ± 0.0057 | -0.0195 ± 0.018 | -0.0205 ± 0.028 | -0.0045 ± 0.011 | 0.004 ± 0.014 | -0.027 ± 0.069 | 0.028 | -0.015 ± 0.034 | -0.006 ± 0.017 | -0.004 ± 0.0042
8 | BF4T:uPA | -0.006 ± 0.011 | -0.0085 ± 0.005 | -0.025 ± 0.0014 | 0.0015 ± 0.015 | -0.003 ± 0.03 | -0.008 ± 0.013 | 0.0055 ± 0.0064 | 0.01 ± 0.014 | 0.0385 ± 0.028 | -0.0105 ± 0.0035 | -0.0125 ± 0.00071 | -0.009 ± 0.016 | -0.0015 ± 0.015 | -0.003 ± 0.0028 | -0.0185 ± 0.005 | -0.0225 ± 0.011 | 0.05 | -0.0175 ± 0.015 | -0.004 ± 0.038 | 0.016 ± 0.027
9 | BT:B cell Proliferation | 0.007 ± 0.0099 | 0.007 ± 0.028 | 0.033 ± 0.0057 | 0.0515 ± 0.028 | 0.078 ± 0.059 | 0.05 ± 0.05 | 0.006 ± 0.0028 | -0.007 ± 0.023 | -0.0195 ± 0.03 | 0.0145 ± 0.011 | 0.012 ± 0.011 | -0.005 ± 0.0042 | -0.0035 ± 0.0078 | 0.011 ± 0.017 | -0.0005 ± 0.011 | -0.002 ± 0.017 | -0.086 | 0.013 ± 0.024 | 0.0055 ± 0.00071 | -0.028 ± 0.054
10 | BT:PBMC Cytotoxicity | 0.0255 ± 0.0035 | -0.019 ± 0.011 | 0.0105 ± 0.042 | 0.03 ± 0.021 | 0.0185 ± 0.033 | 0.019 ± 0.017 | 0.0045 ± 0.019 | 0.016 ± 0.0099 | 0.0445 ± 0.011 | 0 ± 0.013 | 0.0225 ± 0.0021 | 0.019 ± 0.027 | -0.017 ± 0.0071 | 0.005 ± 0.014 | 0.005 | 0 ± 0.031 | 0.006 | 0.012 ± 0.024 | 0.0275 ± 0.025 | 0.0635 ± 0.0035
11 | BT:Secreted IgG | -0.0115 ± 0.016 | -0.009 ± 0.017 | -0.023 ± 0.02 | 0.016 ± 0.0028 | -0.033 ± 0.098 | -0.212 ± 0.17 | 0.001 ± 0.0028 | -0.0745 ± 0.0092 | -0.306 ± 0.21 | 0.0355 ± 0.012 | 0.04 ± 0.028 | -0.026 ± 0.04 | 0.055 ± 0.013 | 0.019 ± 0.048 | 0.0115 ± 0.039 | -0.042 ± 0.0042 | -0.034 | 0.0065 ± 0.0064 | 0.005 ± 0.023 | 0.0215 ± 0.025
12 | BT:sIL-2 | -0.0485 ± 0.069 | -0.022 ± 0.0057 | 0.0155 ± 0.067 | -0.0225 ± 0.036 | 0.0065 ± 0.044 | -0.05 ± 0.072 | -0.0385 ± 0.073 | -0.0105 ± 0.032 | 0.0385 ± 0.083 | -0.024 ± 0.073 | 0.0635 ± 0.067 | -0.006 ± 0.11 | 0.0205 ± 0.039 | 0.061 ± 0.013 | 0.0225 ± 0.057 | -0.01 ± 0.031 | -0.002 | 0.0115 ± 0.063 | 0.0045 ± 0.084 | -0.176 ± 0.17
13 | BT:sIL-6 | -0.038 ± 0.038 | -0.029 ± 0.0057 | -0.013 ± 0.023 | 0.003 ± 0.011 | -0.0345 ± 0.013 | -0.0825 ± 0.032 | -0.0045 ± 0.04 | 0.003 ± 0.0042 | -0.083 ± 0.03 | -0.0155 ± 0.094 | -0.006 ± 0.03 | -0.0105 ± 0.11 | 0.0275 ± 0.021 | -0.0155 ± 0.088 | 0.0205 ± 0.025 | -0.0285 ± 0.016 | -0.097 | 0.01 ± 0.023 | 0.0355 ± 0.03 | -0.07 ± 0.025
14 | BT:sIL-17A | -0.0075 ± 0.013 | -0.0315 ± 0.053 | -0.194 ± 0.18 | 0.0035 ± 0.021 | -0.199 ± 0.028 | -0.231 ± 0.099 | 0.151 ± 0.14 | -0.065 ± 0.0085 | -0.0925 ± 0.3 | 0.06 ± 0.018 | 0.0085 ± 0.12 | 0.02 ± 0.073 | -0.0205 ± 0.21 | -0.0585 ± 0.12 | 0.1795 ± 0.00071 | -0.145 ± 0.044 | -0.141 | 0.122 ± 0.016 | 0.0965 ± 0.0035 | 0.034 ± 0.26
